For 26 compounds, EC50 and CC50 results are on record in patent US20190375708A1 (VenatoRx Pharmaceuticals, Inc., priority 2018, published 2019).

For orientation: EC50 means the concentration giving half of the maximal effect. In general, CC50 refers to the concentration giving 50% cytotoxicity.

Data set [1] has as its system HBV replication in HepAD38 cells. The experiment in a line: Anti-HBV replication assay in HepAD38 cells (QPCR of extracellular HBV DNA). The data set is classed as cell-based, HBV (genotype D, serotype ayw). Particulars: Hepatitis B virus, 168 h, 7 days incubation, extracellular HBV DNA by QPCR, read-out: Anti-HBV EC50. A digest of the protocol: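 Tet-off HepAD38, 7-day compound exposure ([…], 1 log10 steps, DMSO vehicle), 37 °C. Extracellular HBV DNA by QPCR, copies/mL via standard curve, % inhibition vs vehicle, EC50 by 4-parameter regression. Entecavir as positive control.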

A short description of data set [2]: In vitro cytotoxicity assay (MTT cell viability) in HepG2 cells. In kind it is cell-based, human. Particulars: human. In a few lines:
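Read-out: MTT formazan absorbance at 492 nm, expressed as % of vehicle signal; CC50 by 4-parameter non-linear regression. Parental HepG2, 20,000 cells/well, treated 7 days with compound from 30 μM down to 1.0 nM.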

Regarding `CC(C)(CO)NC(=O)C(=O)c1c(Cl)c(C(=O)Nc2ccc(F)c(F)c2)c2n1CCCC2` [Example 492, 2-chloro-N-(3,4-difluorophenyl)-3-(2-((1-hydroxy-2-methylpropan-2-yl)amino)-2-oxoacetyl)-5,6,7,8-tetrahydroindolizine-1-carboxamide], the EC50 in data set [1] was under 50 nM. The CC50 at 7 days in data set [2] is 5000 to 30000 nM.

Take `Cc1cc(NC(=O)c2c(C)c(C(=O)C(=O)NC34CC5CC(CC(O)(C5)C3)C4)n(C)c2C)ccc1F` [Example 15, N-(4-fluoro-3-methylphenyl)-5-(2-(((1r,3s,5R,7S)-3-hydroxyadamantan-1-yl)amino)-2-oxoacetyl)-1,2,4-trimethyl-1H-pyrrole-3-carboxamide]: the EC50 in data set [1] is under 50 nM. The CC50 at 7 days in data set [2] was over 30000 nM.

With `Cc1cc(NC(=O)c2c(C)c(C(=O)C(=O)Nc3ccn(CCO)n3)n(C)c2C)ccc1F` [Example 307, N-(4-fluoro-3-methylphenyl)-5-(2-((1-(2-hydroxyethyl)-1H-pyrazol-3-yl)amino)-2-oxoacetyl)-1,2,4-trimethyl-1H-pyrrole-3-carboxamide], in data set [1], the EC50 was under 50 nM. The same compound yielded a CC50 at 7 days in data set [2] of over 30000 nM.

As for `COC(=O)[C@@H](NC(=O)C(=O)c1c(C)c(C(=O)Nc2ccc(F)c(C)c2)c(C)n1C)[C@H](C)O` [Example 45, methyl (2-(4-((4-fluoro-3-methylphenyl)carbamoyl)-1,3,5-trimethyl-1H-pyrrol-2-yl)-2-oxoacetyl)-L-allothreoninate], the EC50 in data set [1] fell in the range of 500 to 1000 nM. This compound displayed a CC50 at 7 days in data set [2] of over 30000 nM.

Turning to `Cc1cc(NC(=O)c2c(C)c(C(=O)C(=O)NCc3cnc(N)s3)n3c2CCCC3)cnc1F` [Example 473, 3-(2-(((2-aminothiazol-5-yl)methyl)amino)-2-oxoacetyl)-N-(6-ffluoro-5-methylpyridin-3-yl)-2-methyl-5,,6,7,8-tetrahydroindolizine--1 carboxamide], in data set [1], the EC50 lay within 500 to 1000 nM. This compound also came in with a CC50 at 7 days in data set [2] of over 30000 nM.

For the compound `Cc1noc([C@@H](NC(=O)C(=O)c2c(Cl)c(C(=O)Nc3ccc(F)c(C)c3)c3n2CCCC3)C(C)C)n1` [Example 493, (S)-2-chloro-N-(4-fluoro-3-methylphenyl)-3-(2-((2-methyl-1-(3-methyl-1,2,4-oxadiazol-5-yl)propyl)amino)-2-oxoacetyl)-5,6,7,8-tetrahydroindolizine-1-carboxamide], the EC50 in data set [1] was under 50 nM. In addition, the CC50 at 7 days in data set [2] fell in the range of 5000 to 30000 nM.

As to `Cc1cc(NC(=O)c2c(C)c(C(=O)C(=O)NCCCN3CCOCC3)n(C)c2C)ccc1F` [Example 301, N-(4-fluoro-3-methylphenyl)-1,2,4-trimethyl-5-(2-((3-morpholinopropyl)amino)-2-oxoacetyl)-1H-pyrrole-3-carboxamide], the EC50 in data set [1] is under 50 nM. In data set [2], this compound returned a CC50 at 7 days of over 30000 nM.

As for `Cc1cc(NC(=O)c2c(C)c(C(=O)C(=O)N[C@H]3CCC[C@H]3O)n(C)c2C)ccc1F` [Example 94, N-(4-fluoro-3-methylphenyl)-5-(2-(((1S,2R)-2-hydroxycyclopentyl)amino)-2-oxoacetyl)-1,2,4-trimethyl-1H-pyrrole-3-carboxamide], the EC50 in data set [1] was under 50 nM. Also, the CC50 at 7 days in data set [2] is over 30000 nM.

As to `Cc1cc(NC(=O)c2c(Cl)c(C(=O)C(=O)NC3(CO)CC3)n3c2CCC3)ccc1F` [Example 542, 6-chloro-N-(4-fluoro-3-methylphenyl)-5-(2-((1-(hydroxymethyl)cyclopropyl)amino)-2-oxoacetyl)-2,3-dihydro-1H-pyrrolizine-7-carboxamide], the EC50 in data set [1] was under 50 nM. In addition, in data set [2], the CC50 at 7 days was over 30000 nM.

Turning to `Cc1cc(NC(=O)c2c(C)c(C(=O)C(=O)N[C@H](CO)[C@@H](C)O)n(C)c2C)ccc1F` [Example 143, 5-(2-(((2R,3R)-1,3-dihydroxybutan-2-yl)amino)-2-oxoacetyl)-N-(4-fluoro-3-methylphenyl)-1,2,4-trimethyl-1H-pyrrole-3-carboxamide], the EC50 in data set [1] was under 50 nM. The CC50 at 7 days in data set [2] is over 30000 nM.

For the compound `Cc1cc(NC(=O)c2c(C)c(C(=O)C(=O)N[C@@H](CO)[C@H](C)O)n(C)c2C)ccc1F` [Example 103, 5-(2-(((2S,3S)-1,3-dihydroxybutan-2-yl)amino)-2-oxoacetyl)-N-(4-fluoro-3-methylphenyl)-1,2,4-trimethyl-1H-pyrrole-3-carboxamide], the EC50 in data set [1] is under 50 nM. Also, the CC50 at 7 days in data set [2] was over 30000 nM.

Turning to `Cc1cc(NC(=O)c2c(C)c(C(=O)C(=O)NC3CCN(c4cccs4)CC3)n(C)c2C)ccc1F` [Example 655], the 50% effective concentration (EC50) in data set [1] is 50 to 499 nM. Moreover, the CC50 at 7 days in data set [2] was over 30000 nM.

As for `Cc1c(C(=O)Nc2ccc(F)c(Cl)c2)c2n(c1C(=O)C(=O)NC1(CO)CC(F)(F)C1)CCCC2` [Example 465, N-(3-chloro-4-fluorophenyl)-3-(2-((3,3-difluoro-1-(hydroxymethyl)cyclobutyl)amino)-2-oxoacetyl)-2-methyl-5,,6,7,8-tetrahydroindolizine-1-carboxamide], in data set [1], the EC50 was under 50 nM. For the same compound, in data set [2], the CC50 at 7 days was in the range of 5000 to 30000 nM.

As for `Cc1c(C(=O)Nc2cccc(Cl)c2)c(C)n(C)c1C(=O)C(=O)NC(C)(C)CO` [Example 600, N-(3-chlorophenyl)-5-(2-((1-hydroxy-2-methylpropan-2-yl)amino)-2-oxoacetyl)-1,2,4-trimethyl-1H-pyrrole-3-carboxamide], in data set [1], the EC50 is under 50 nM. For the same compound, the CC50 at 7 days in data set [2] was over 30000 nM.

In the case of `Cc1noc([C@H](C)NC(=O)C(=O)c2c(Cl)c(C(=O)Nc3ccc(F)c(C)c3)c3n2CCC3)n1` [Example 545, (S)-6-chloro-N-(4-fluoro-3-methylphenyl)-5-(2-((1-(3-methyl-1,2,4-oxadiazol-5-yl)ethyl)amino)-2-oxoacetyl)-2,3-dihydro-1H-pyrrolizine-7-carboxamide], in data set [1], the EC50 was under 50 nM. In data set [2], this compound had a CC50 at 7 days of 5000 to 30000 nM.

Consider `Cc1c(C(=O)Nc2cccc(C(F)F)c2)c(C)n(C)c1C(=O)C(=O)N[C@]1(C)C[C@@H](O)C1` [Example 720, N-(3-(difluoromethyl)phenyl)-5-(2-(((1r,3r)-3-hydroxy-1-methylcycloutyl)amino)-2-oxoacetyl)-1,2,4-trimethyl-1H-pyrrole-3-carboxamide], for which the EC50 in data set [1] is under 50 nM. This compound came in with a CC50 at 7 days in data set [2] of over 30000 nM.

Consider `Cc1c(C(=O)Nc2ccc(F)nc2)c(C)n(C)c1C(=O)C(=O)N[C@H]1CC[C@](O)(C(F)(F)F)CC1` [Example 239], for which the EC50 in data set [1] lay in the range of 500 to 1000 nM. In data set [2], the CC50 at 7 days was over 30000 nM.

Take `Cc1cc(NC(=O)c2c(C)c(C(=O)C(=O)N[C@@H]3CCOC[C@H]3O)n(C)c2C)ccc1F` [Example 149, N-(4-fluoro-3-methylphenyl)-5-(2-(((3S,4R)-3-hydroxytetrahydro-2H-pyran-4-yl)amino)-2-oxoacetyl)-1,2,4-trimethyl-1H-pyrrole-3-carboxamide]: the EC50 in data set [1] was under 50 nM. The compound also gave a CC50 at 7 days in data set [2] of over 30000 nM.

In the case of `COCC(C)(C)NC(=O)C(=O)c1c(C)c(C(=O)Nc2cnc(F)c(C)c2)c(C)n1CCF` [Example 226, N-(6-fluoro-5-methylpyridin-3-yl)-1-(2-fluoroethyl)-5-(2-((1-methoxy-2-methylpropan-2-yl)amino)-2-oxoacetyl)-2,4-dimethyl-1H-pyrrole-3-carboxamide], in data set [1], the EC50 is 500 to 1000 nM. Besides, in data set [2], the CC50 at 7 days was over 30000 nM.

For the compound `Cc1cc(NC(=O)c2c(C)c(C(=O)C(=O)N3[C@@H]4CC[C@H]3C[C@H](O)C4)n(C)c2C)ccc1F` [Example 48, N-(4-fluoro-3-methylphenyl)-5-(2-((1R,3s,5S)-3-hydroxy-8-azabicyclo[3.2.1]octan-8-yl)-2-oxoacetyl)-1,2,4-trimethyl-1H-pyrrole-3-carboxamide], the EC50 in data set [1] was 50 to 499 nM. Also, in data set [2], the CC50 at 7 days was over 30000 nM.

In the case of `Cc1cc(NC(=O)c2cc(C(=O)C(=O)NC(C)(C)C(N)=O)n3c2CCCC3)ccc1F` [Example 406], the EC50 in data set [1] was 500 to 1000 nM. In data set [2], this compound yielded a CC50 at 7 days of over 30000 nM.

Turning to `CC[C@H](C)NC(=O)C(=O)c1c(Cl)c(C(=O)Nc2cnc(F)c(C)c2)c2n1CCCC2` [Example 729, (S)-3-(2-(sec-butylamino)-2-oxoacetyl)-2-chloro-N-(6-fluoro-5-methylpyridin-3-yl)-5,6,7,8-tetrahydroindolizine-1-carboxamide], the EC50 in data set [1] lay within 50 to 499 nM. The same compound registered a CC50 at 7 days in data set [2] of over 30000 nM.

Take `Cc1cc(NC(=O)c2c(C)c(C(=O)C(=O)NC3CCN(c4cccnc4)CC3)n(C)c2C)ccc1F` [Example 663, N-(4-fluoro-3-methylphenyl)-1,2,4-trimethyl-5-(2-oxo-2-((1-(pyridin-3-yl)piperidin-4-yl)amino)acetyl)-1H-pyrrole-3-carboxamide]: in data set [1], the EC50 was under 50 nM. Also, the CC50 at 7 days in data set [2] is over 30000 nM.

In the case of `Cc1cc(NC(=O)c2c(C)c(C(=O)C(=O)N[C@@H](CO)C(=O)O)n(C)c2C)ccc1F` [Example 32, (2-(4-((4-fluoro-3-methylphenyl)carbamoyl)-1,3,5-trimethyl-1H-pyrrol-2-yl)-2-oxoacetyl)-L-serine], in data set [1], the EC50 is over 1000 nM. Besides, the CC50 at 7 days in data set [2] was over 30000 nM.

For the compound `Cc1cc(NC(=O)c2c(C)c(C(=O)C(=O)Nc3ccc(F)cn3)n(C)c2C)cnc1F` [Example 338, N-(6-fluoro-5-methylpyridin-3-yl)-5-(2-((5-fluoropyridin-2-yl)amino)-2-oxoacetyl)-1,2,4-trimethyl-1H-pyrrole-3-carboxamide], in data set [1], the EC50 lay within 500 to 1000 nM. The compound also yielded a CC50 at 7 days in data set [2] of over 30000 nM.

`Cc1c(C(=O)Nc2ccnc(F)c2)c(C)n(C)c1C(=O)C(=O)N[C@@H](C)C(F)(F)F` [Example 274, (S)-N-(2-fluoropyridin-4-yl)-1,2,4-trimethyl-5-(2-oxo-2-((1,1,1-trifluoropropan-2-yl)amino)acetyl)-1H-pyrrole-3-carboxamide]: the EC50 in data set [1] was under 50 nM. This compound also displayed a CC50 at 7 days in data set [2] of over 30000 nM.
